Measurements as given in patent publication US20090306052A1, “INDENYL DERIVATIVES AND USE THEREOF FOR THE TREATMENT OF NEUROLOGICAL DISORDERS” (Glaxo Group Limited, priority 2004, published 2009).

The compounds below were run against T1, histamine H3 receptor (Homo sapiens, UniProt Q9Y5N1) (assay: Histamine H3 functional antagonist assay ([35S]-GTPγS SPA, membranes from cultured H3 cells)). Settings: hydrochloride salts tested; averages of a number of experiments; membrane prepared from cultured H3 cells; read-out: functional pKi (fpKi), histamine H3 functional antagonist assay (converted).
T1 construct: expressed in transfected cells; host or cells: CHO K1 cells carrying the pSwitch regulatory plasmid, transfected with pGeneH3 and induced with mifepristone; clone 3H3; membrane preparation
Assay type: biochemical
Text: A membrane preparation containing histamine H3 receptors may be prepared in accordance with the following procedures:
DNA encoding the human histamine H3 gene (Huvar, A. et al. (1999) Mol. Pharmacol. 55(6), 1101-1107) was cloned into a holding vector, pcDNA3.1 TOPO (InVitrogen) and its cDNA was isolated from this vector by restriction digestion of plasmid DNA with the enzymes BamH1 and Not-1 and ligated into the inducible expression vector pGene (InVitrogen) digested with the same enzymes. The GeneSwitch™ system (a system where in transgene expression is switched off in the absence of an inducer and switched on in the presence of an inducer) was performed as described in U.S. Pat. Nos. 5,364,791; 5,874,534; and 5,935,934. Ligated DNA was transformed into competent DH5α E. coli host bacterial cells and plated onto Luria Broth (LB) agar containing Zeocin™ (an antibiotic which allows the selection of cells expressing the sh ble gene which is present on pGene and pSwitch) at 50 μg ml^−1. Colonies containing the re-ligated plasmid were identified by restriction analysis. DNA for transfection into mammalian cells was prepared from 250 ml cultures of the host bacterium containing the pGeneH3 plasmid and isolated using a DNA preparation kit (Qiagen Midi-Prep) as per manufacturers guidelines (Qiagen).
CHO K1 cells previously transfected with the pSwitch regulatory plasmid (InVitrogen) were seeded at 2×10e6 cells per T75 flask in Complete Medium, containing Hams F12 (GIBCOBRL, Life Technologies) medium supplemented with 10% v/v dialysed foetal bovine serum, L-glutamine, and hygromycin (100 μg ml^−1), 24 hours prior to use. Plasmid DNA was transfected into the cells using Lipofectamine plus according to the manufacturers guidelines (InVitrogen). 48 hours post transfection cells were placed into complete medium supplemented with 500 μg ml^−1 Zeocin™.
10-14 days post selection 10 nM Mifepristone (InVitrogen), was added to the culture medium to induce the expression of the receptor. 18 hours post induction cells were detached from the flask using ethylenediamine tetra-acetic acid (EDTA; 1:5000; InVitrogen), following several washes with phosphate buffered saline pH 7.4 and resuspended in Sorting Medium containing Minimum Essential Medium (MEM), without phenol red, and supplemented with Earles salts and 3% Foetal Clone II (Hyclone). Approximately 1×10e7 cells were examined for receptor expression by staining with a rabbit polyclonal antibody, 4a, raised against the N-terminal domain of the histamine H3 receptor, incubated on ice for 60 minutes, followed by two washes in sorting medium. Receptor bound antibody was detected by incubation of the cells for 60 minutes on ice with a goat anti rabbit antibody, conjugated with Alexa 488 fluorescence marker (Molecular Probes). Following two further washes with Sorting Medium, cells were filtered through a 50 μm Filcon™ (BD Biosciences) and then analysed on a FACS Vantage SE Flow Cytometer fitted with an Automatic Cell Deposition Unit. Control cells were non-induced cells treated in a similar manner. Positively stained cells were sorted as single cells into 96-well plates, containing Complete Medium containing 500 μg ml^−1 Zeocin™ and allowed to expand before reanalysis for receptor expression via antibody and ligand binding studies. One clone, 3H3, was selected for membrane preparation.
All steps of the protocol are carried out at 4° C. and with pre-cooled reagents. […]

T1 sequence (Q9Y5N1 whole entry): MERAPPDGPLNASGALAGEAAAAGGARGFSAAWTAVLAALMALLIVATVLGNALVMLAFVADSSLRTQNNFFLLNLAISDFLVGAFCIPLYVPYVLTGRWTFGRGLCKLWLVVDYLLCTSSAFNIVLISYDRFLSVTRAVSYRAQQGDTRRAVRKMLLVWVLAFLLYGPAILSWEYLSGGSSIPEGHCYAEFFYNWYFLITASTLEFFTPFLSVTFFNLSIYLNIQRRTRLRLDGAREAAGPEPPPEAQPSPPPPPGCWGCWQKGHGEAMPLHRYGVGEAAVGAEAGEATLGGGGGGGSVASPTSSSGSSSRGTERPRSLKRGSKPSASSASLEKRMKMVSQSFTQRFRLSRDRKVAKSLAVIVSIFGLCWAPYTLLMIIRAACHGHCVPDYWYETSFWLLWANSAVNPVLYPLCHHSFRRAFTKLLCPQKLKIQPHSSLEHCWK

Ki, < 1 nM:
O=C1CCCN1c1ccc(Oc2ccc3c(c2)CC(N2CCCC2)C3)nc1 (racemic) [Example 3, 1-(6-{[2-(1-Pyrrolidinyl)-2,3-dihydro-1H-inden-5-yl]oxy}-3-pyridinyl)-2-pyrrolidinone]
CNC(=O)c1ccc(Oc2ccc3c(c2)CC(N2CCCC2)C3)nc1 (single isomer, unassigned; (-)) [Example 22, (−)-Enantiomer N-methyl-6-{[2-(1-pyrrolidinyl)-2,3-dihydro-1H-inden-5-yl]oxy}-3-pyridinecarboxamide]
O=C1CCCN1c1ccc(Oc2ccc3c(c2)CC(N2CCCC2)C3)nc1 (single isomer, unassigned; enantiomer 1) [Example 4, (−)-Enantiomer 1-(6-{[2-(1-Pyrrolidinyl)-2,3-dihydro-1H-inden-5-yl]oxy}-3-pyridinyl)-2-pyrrolidinone]
O=C(c1ccc(Oc2ccc3c(c2)CC(N2CCCC2)C3)nc1)N1CCCC1 (centres unmarked) [Example 12, 5-(1-Pyrrolidinylcarbonyl)-2-{[2-(1-pyrrolidinyl)-2,3-dihydro-1H-inden-5-yl]oxy}pyridine]
C[C@H]1CCCN1C1Cc2ccc(Oc3ccc(N4CCCC4=O)cn3)cc2C1 (stereo partly drawn) [Example 20, 1-[6-({2-[(2S)-2-Methyl-1-pyrrolidinyl]-2,3-dihydro-1H-inden-5-yl}oxy)-3-pyridinyl]-2-pyrrolidinone]
